Test results from patent publication US10441689B2, “Methods and devices for three-dimensional printing or additive manufacturing of bioactive medical devices” (Louisiana Tech Research Corporation, priority 2014, dated 2019).

Columns and labels:
E. Coli bacteria [1] = experiment: bacterial plates, antibiotic susceptibility gel diffusion testing; type: cell-based; conditions: 1 mg amounts; for kill zone on bacterial plate, cooked powder: antibiotic powder heated to 220 Celsius for 5 minutes
Procedure: (§1) In another example embodiment (example 3), PLA pellets were run through a filament extruder with 2% gentamicine powder at 175 Celsius. The resulting filament was tested on bacterial plates using antibiotic susceptibility gel diffusion testing using E. Coli bacteria. A kill zone was observed around the filament. […] The filament is run through a 3D printer head nozzle at 220 Celsius and 300 um fibers are created. […] It should be noted that bacterial plates and cultures were carried out as close to Kirby-Bauer ISO standards as possible being that of 100 mm Mueller Hinton plates or Mueller Hinton broths. E. Coli colonies (Sigma Aldrich Vitroid Origin) used to seed plates were taken from 0.5 McFarland standard solutions in 50 uL quantities. Control plates and broths were used. Control PLA printed discs, beads, stents and catheters were used to compare against antibiotic filaments. Molded bone cement beads, discs and filaments made of Ortho-Right LV bone cements were used as comparison for no antibiotic and antibiotic controls.

E. Coli bacteria [2] = experiment: bacterial broth culture; type: cell-based; conditions: 1 mg amounts; for bacterial growth in broth culture, cooked powder: antibiotic powder heated to 220 Celsius for 5 minutes
Procedure: as §1

Compound | kill zone on bacterial plate, cooked powder (E. Coli bacteria [1]) | kill zone on bacterial plate, uncooked control powder (E. Coli bacteria [1]) | bacterial growth in broth culture, cooked powder (E. Coli bacteria [2]) | bacterial growth in broth culture, uncooked control powder (E. Coli bacteria [2])
NC[C@H]1O[C@H](O[C@H]2[C@H](O)[C@@H](O[C@H]3O[C@H](CO)[C@@H](O)[C@H](N)[C@H]3O)[C@H](N)C[C@@H]2N)[C@H](N)C[C@@H]1O [Tobramycin] | kill zones | kill zones | no bacterial growth | no bacterial growth
Gentamicin | kill zones | kill zones | no bacterial growth | no bacterial growth
